Assay results published in ChEMBL document CHEMBL6092221, “Discovery of a Novel Macrocyclic Noncovalent CDK7 Inhibitor for Cancer Therapy” (J Med Chem, 2024).

Legend:
[1] = Metabolic stability in mouse liver microsomes assessed as intrinsic clearance; assay type: ADME, Microsome; conditions: read-out: CLH
[2] = Half life in rat at 1 mg/kg, iv; assay type: ADME, organism-based; conditions: in vivo
[3] = Half life in rat at 5 mg/kg, po; assay type: ADME, organism-based; conditions: in vivo
[4] = Volume of distribution at steady state in rat at 1 mg/kg, iv; assay type: ADME, organism-based; conditions: in vivo, read-out: Vdss
[5] = Volume of distribution at steady state in dog at 0.2 mg/kg, iv; assay type: ADME, organism-based, Canis lupus familiaris; conditions: in vivo, read-out: Vdss
[6] = AUC(0 to t) in rat at 1 mg/kg, iv; assay type: ADME, organism-based; conditions: in vivo
[7] = Cmax in mouse at 5 mg/kg, po; assay type: ADME, organism-based; conditions: in vivo
[8] = Oral bioavailability in mouse at 5 mg/kg; assay type: ADME, organism-based; conditions: in vivo
[9] = Half life in Sprague-Dawley rat at 30 mg/kg, po; assay type: ADME, organism-based; conditions: in vivo
[10] = Half life in Sprague-Dawley rat at 100 mg/kg, po; assay type: ADME, organism-based; conditions: in vivo
[11] = Cmax in Sprague-Dawley rat at 100 mg/kg, po; assay type: ADME, organism-based; conditions: in vivo
[12] = Cmax in Sprague-Dawley rat at 300 mg/kg, po; assay type: ADME, organism-based; conditions: in vivo
[13] = AUC(0 to 24 hrs) in Sprague-Dawley rat at 30 mg/kg, po; assay type: ADME, organism-based; conditions: in vivo
[14] = AUC(0 to 24 hrs) in Sprague-Dawley rat at 100 mg/kg, po; assay type: ADME, organism-based; conditions: in vivo
[15] = biological target: Cyclin-Y/Cyclin-dependent kinase 16 (Homo sapiens, UniProt Q00536); experiment: Inhibition of CDK16/CyclinY (unknown origin); assay type: protein-complex assay
[16] = biological target: Mitogen-activated protein kinase 15 (Homo sapiens, UniProt Q8TD08); experiment: Inhibition of Erk8 (unknown origin)
[17] = biological target: Cyclin-dependent kinase 14/Cyclin-Y (Homo sapiens, UniProt O94921); experiment: Inhibition of CDK14/Cyclin Y (unknown origin); assay type: protein-complex assay
[18] = biological target: Cyclin-dependent kinase 4/cyclin D1 (Homo sapiens, UniProt P11802); experiment: Inhibition of CDK4/CyclinD1 (unknown origin); assay type: protein-complex assay
CDK18/Cyclin Y = CDK18/Cyclin Y (Homo sapiens, UniProt Q07002+Q8ND76); experiment: Inhibition of CDK18/Cyclin Y (unknown origin); assay type: protein-complex assay
[19] = biological target: Homeodomain-interacting protein kinase 4 (Homo sapiens, UniProt Q8NE63); experiment: Inhibition of HIPK4 (unknown origin)
[20] = biological target: Serine/threonine-protein kinase D1 (Homo sapiens, UniProt Q15139); experiment: Inhibition of PRKD1 (unknown origin)
[21] = biological target: Serine/threonine-protein kinase D2 (Homo sapiens, UniProt Q9BZL6); experiment: Inhibition of PRKD2 (unknown origin)
[22] = biological target: Ribosomal protein S6 kinase alpha-3 (Homo sapiens, UniProt P51812); experiment: Inhibition of RSK2 (unknown origin)
[23] = Plasma protein binding in human assessed as unbound fraction; assay type: ADME, cell-free
[24] = Plasma protein binding in mouse assessed as unbound fraction; assay type: ADME, cell-free
[25] = Plasma stability in human assessed as half life; assay type: ADME, cell-free
Cytochrome P450 2D6 = Cytochrome P450 2D6 (Homo sapiens, UniProt P10635); experiment: Inhibition of CYP2D6 (unknown origin); assay type: ADME
Cytochrome P450 3A4 = Cytochrome P450 3A4 (Homo sapiens, UniProt P08684); experiment: Inhibition of CYP3A4 (unknown origin); assay type: ADME
OVCAR-3 [26] = experiment: Antitumor activity against human OVCAR-3 cells xenografted in female Balb/c nude mouse assessed as tumor growth inhibition at 2 mg/kg, po administered once daily and measured on day 22; assay type: functional; conditions: OVCAR-3, 528 h, time 22 day, read-out: TGI
OVCAR-3 [27] = experiment: Antitumor activity against human OVCAR-3 cells xenografted in female Balb/c nude mouse assessed as tumor growth inhibition at 5 mg/kg, po administered once daily and measured on day 22; assay type: functional; conditions: OVCAR-3, 528 h, time 22 day, read-out: TGI
[28] = Half life in human OVCAR-3 cells xenografted in female Balb/c nude mouse plasma at 10 mg/kg, po administered once daily; assay type: ADME, organism-based
[29] = Cmax in human OVCAR-3 cells xenografted in female Balb/c nude mouse plasma at 2 mg/kg, po administered once daily; assay type: ADME, organism-based
[30] = Cmax in human OVCAR-3 cells xenografted in female Balb/c nude mouse plasma at 20 mg/kg, po administered once daily; assay type: ADME, organism-based
[31] = AUC (0 to t) in human OVCAR-3 cells xenografted in female Balb/c nude mouse plasma at 2 mg/kg, po administered once daily; assay type: ADME, organism-based
[32] = AUC (0 to t) in human OVCAR-3 cells xenografted in female Balb/c nude mouse plasma at 5 mg/kg, po administered once daily; assay type: ADME, organism-based
[33] = AUC (0 to t) in human OVCAR-3 cells xenografted in female Balb/c nude mouse plasma at 10 mg/kg, po administered once daily; assay type: ADME, organism-based
[34] = AUC (0 to t) in human OVCAR-3 cells xenografted in female Balb/c nude mouse plasma at 20 mg/kg, po administered once daily; assay type: ADME, organism-based
[35] = Half life in human HCC70 cells xenografted in female nu/nu mouse plasma at 3 mg/kg, po administered once daily; assay type: ADME, organism-based
[36] = Half life in human HCC70 cells xenografted in female nu/nu mouse plasma at 10 mg/kg, po administered once daily; assay type: ADME, organism-based
[37] = Cmax in human HCC70 cells xenografted in female nu/nu mouse plasma at 1 mg/kg, po administered once daily; assay type: ADME, organism-based
[38] = Cmax in human HCC70 cells xenografted in female nu/nu mouse plasma at 3 mg/kg, po administered once daily; assay type: ADME, organism-based
[39] = AUC(0 to t) in human HCC70 cells xenografted in female nu/nu mouse plasma at 1 mg/kg, po administered once daily; assay type: ADME, organism-based
[40] = AUC(0 to t) in human HCC70 cells xenografted in female nu/nu mouse plasma at 10 mg/kg, po administered once daily; assay type: ADME, organism-based
[41] = biological target: Mitogen-activated protein kinase 15 (Homo sapiens) (UniProt Q8TD08); experiment: Inhibition of Erk8 (unknown origin) at 200 nM relative to control; values are per cent of control
[42] = biological target: Cyclin-dependent kinase 7 (Homo sapiens) (UniProt P50613); experiment: Inhibition of CDK7 (unknown origin) at 200 nM relative to control; values are per cent of control
[43] = biological target: Serine/threonine-protein kinase TAO1 (Homo sapiens) (UniProt Q7L7X3); experiment: Inhibition of TAOK1 (unknown origin) at 200 nM relative to control; values are per cent of control
[44] = biological target: Cyclin-dependent kinase 4/cyclin D1 (Homo sapiens) (UniProt P11802+P24385); experiment: Inhibition of CDK4/CyclinD1 (unknown origin) at 200 nM relative to control; values are per cent of control
[45] = biological target: CDK4/Cyclin D3 (Homo sapiens) (UniProt P11802+P30281); experiment: Inhibition of CDK4/Cyclin D3 (unknown origin) at 200 nM relative to control; values are per cent of control

Sequence of Cytochrome P450 2D6 (P10635 whole entry): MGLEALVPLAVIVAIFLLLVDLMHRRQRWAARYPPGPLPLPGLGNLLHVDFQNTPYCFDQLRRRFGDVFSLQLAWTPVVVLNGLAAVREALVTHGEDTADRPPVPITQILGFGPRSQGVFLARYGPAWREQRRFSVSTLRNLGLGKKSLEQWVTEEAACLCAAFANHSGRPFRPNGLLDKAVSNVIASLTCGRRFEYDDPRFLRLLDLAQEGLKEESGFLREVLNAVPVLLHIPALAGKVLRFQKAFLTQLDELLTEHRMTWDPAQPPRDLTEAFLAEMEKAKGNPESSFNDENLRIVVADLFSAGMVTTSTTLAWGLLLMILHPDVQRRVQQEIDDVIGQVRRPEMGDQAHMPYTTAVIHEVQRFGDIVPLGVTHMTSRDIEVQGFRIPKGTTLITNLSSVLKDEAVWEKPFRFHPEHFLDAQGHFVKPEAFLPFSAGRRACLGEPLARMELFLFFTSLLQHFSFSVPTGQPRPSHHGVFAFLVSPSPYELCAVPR
Sequence of Homeodomain-interacting protein kinase 4 (Q8NE63 whole entry): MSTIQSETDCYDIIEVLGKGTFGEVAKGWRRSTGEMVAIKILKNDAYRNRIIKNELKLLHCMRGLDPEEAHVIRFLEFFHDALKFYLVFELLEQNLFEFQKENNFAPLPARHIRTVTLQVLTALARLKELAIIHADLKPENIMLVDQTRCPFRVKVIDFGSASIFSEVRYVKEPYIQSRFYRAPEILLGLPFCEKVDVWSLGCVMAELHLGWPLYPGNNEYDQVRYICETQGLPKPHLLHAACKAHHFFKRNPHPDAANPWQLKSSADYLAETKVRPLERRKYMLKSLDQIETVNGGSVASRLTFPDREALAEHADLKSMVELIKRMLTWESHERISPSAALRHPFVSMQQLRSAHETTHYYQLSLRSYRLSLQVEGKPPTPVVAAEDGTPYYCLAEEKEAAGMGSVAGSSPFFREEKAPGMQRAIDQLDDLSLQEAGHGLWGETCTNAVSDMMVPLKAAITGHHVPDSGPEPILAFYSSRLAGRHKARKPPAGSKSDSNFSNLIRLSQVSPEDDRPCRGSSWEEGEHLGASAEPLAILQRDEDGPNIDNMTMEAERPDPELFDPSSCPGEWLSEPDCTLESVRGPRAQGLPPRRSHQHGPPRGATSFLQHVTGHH
Sequence of Serine/threonine-protein kinase D1 (Q15139 whole entry): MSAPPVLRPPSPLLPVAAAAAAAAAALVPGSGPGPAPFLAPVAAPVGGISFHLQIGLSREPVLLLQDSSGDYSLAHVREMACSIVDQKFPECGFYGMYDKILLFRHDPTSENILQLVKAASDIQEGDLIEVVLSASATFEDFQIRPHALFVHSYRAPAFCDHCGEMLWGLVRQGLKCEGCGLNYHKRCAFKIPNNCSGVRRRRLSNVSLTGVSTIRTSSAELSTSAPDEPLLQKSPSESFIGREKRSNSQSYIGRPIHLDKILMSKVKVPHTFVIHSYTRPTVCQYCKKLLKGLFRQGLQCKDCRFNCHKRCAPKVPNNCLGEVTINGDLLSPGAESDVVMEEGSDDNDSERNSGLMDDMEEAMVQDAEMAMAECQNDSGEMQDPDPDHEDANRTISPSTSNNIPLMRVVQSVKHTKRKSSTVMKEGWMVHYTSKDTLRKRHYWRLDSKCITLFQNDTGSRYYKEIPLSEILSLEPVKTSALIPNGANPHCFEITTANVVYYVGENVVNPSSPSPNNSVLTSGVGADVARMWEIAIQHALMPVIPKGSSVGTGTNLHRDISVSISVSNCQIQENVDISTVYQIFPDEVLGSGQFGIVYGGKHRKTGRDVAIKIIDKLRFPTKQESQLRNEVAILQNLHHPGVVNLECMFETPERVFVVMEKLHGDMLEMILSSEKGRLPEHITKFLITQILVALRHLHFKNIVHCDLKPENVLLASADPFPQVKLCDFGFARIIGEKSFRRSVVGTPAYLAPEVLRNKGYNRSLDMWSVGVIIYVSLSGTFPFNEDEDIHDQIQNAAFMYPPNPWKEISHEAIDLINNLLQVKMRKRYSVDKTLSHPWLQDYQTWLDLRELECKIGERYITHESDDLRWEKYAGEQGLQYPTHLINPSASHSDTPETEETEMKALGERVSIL
Sequence of Cyclin-dependent kinase 4/cyclin D1 (P11802 whole entry): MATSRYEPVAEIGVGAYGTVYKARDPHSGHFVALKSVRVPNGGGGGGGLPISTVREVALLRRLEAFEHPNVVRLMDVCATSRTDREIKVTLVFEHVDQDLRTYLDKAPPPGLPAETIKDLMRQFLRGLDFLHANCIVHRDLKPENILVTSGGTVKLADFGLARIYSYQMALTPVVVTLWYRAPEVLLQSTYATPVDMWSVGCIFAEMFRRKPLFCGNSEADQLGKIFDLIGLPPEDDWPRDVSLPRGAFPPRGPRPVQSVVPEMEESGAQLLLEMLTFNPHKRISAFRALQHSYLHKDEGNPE
Sequence of Cyclin-dependent kinase 4/cyclin D1 (P24385 whole entry, further chain): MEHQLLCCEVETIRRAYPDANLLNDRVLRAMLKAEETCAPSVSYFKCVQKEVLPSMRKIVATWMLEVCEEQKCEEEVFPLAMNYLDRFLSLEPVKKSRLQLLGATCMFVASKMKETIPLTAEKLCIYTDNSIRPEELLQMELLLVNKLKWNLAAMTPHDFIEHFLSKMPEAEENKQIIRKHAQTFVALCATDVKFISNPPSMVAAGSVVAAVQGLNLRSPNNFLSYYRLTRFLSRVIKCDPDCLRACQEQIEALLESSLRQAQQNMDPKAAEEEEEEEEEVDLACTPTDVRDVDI
Sequence of Cyclin-dependent kinase 14/Cyclin-Y (O94921 whole entry): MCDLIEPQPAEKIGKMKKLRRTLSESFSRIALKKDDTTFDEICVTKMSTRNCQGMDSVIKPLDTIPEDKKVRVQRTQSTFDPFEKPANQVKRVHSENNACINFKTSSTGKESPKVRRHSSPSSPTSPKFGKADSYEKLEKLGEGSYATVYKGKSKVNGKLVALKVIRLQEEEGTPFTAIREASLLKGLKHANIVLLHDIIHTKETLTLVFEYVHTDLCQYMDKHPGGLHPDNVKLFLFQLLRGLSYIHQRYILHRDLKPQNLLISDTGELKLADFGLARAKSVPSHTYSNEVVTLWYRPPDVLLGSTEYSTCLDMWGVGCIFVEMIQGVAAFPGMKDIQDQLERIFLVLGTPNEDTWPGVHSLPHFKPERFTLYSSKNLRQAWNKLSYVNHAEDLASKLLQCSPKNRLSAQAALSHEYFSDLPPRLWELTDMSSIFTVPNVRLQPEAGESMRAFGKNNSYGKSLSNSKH
Sequence of Cyclin-dependent kinase 14/Cyclin-Y (Q8ND76 whole entry, further chain): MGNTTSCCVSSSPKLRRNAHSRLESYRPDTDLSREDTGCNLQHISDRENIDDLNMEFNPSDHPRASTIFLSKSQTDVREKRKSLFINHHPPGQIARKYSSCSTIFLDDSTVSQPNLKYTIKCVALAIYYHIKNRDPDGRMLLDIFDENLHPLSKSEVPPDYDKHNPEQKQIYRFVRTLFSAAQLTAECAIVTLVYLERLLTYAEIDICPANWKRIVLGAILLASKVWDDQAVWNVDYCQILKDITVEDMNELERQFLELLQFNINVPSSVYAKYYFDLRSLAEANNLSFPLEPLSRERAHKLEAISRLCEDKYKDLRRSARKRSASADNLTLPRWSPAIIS
Sequence of Cytochrome P450 3A4 (P08684 whole entry): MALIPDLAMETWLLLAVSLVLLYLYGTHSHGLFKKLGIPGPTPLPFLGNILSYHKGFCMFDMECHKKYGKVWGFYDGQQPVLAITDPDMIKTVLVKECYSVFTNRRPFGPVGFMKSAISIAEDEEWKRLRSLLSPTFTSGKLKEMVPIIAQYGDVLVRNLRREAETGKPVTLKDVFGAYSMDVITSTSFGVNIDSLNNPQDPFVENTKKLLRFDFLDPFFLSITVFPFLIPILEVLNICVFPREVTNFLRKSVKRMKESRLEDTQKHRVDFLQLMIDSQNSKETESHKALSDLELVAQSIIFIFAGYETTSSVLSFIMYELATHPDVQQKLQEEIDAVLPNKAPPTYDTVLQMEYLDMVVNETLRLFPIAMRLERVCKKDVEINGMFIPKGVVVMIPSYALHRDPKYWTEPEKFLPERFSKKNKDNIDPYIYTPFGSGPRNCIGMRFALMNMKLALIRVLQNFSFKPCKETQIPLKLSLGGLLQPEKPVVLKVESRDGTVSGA
Sequence of Ribosomal protein S6 kinase alpha-3 (P51812 whole entry): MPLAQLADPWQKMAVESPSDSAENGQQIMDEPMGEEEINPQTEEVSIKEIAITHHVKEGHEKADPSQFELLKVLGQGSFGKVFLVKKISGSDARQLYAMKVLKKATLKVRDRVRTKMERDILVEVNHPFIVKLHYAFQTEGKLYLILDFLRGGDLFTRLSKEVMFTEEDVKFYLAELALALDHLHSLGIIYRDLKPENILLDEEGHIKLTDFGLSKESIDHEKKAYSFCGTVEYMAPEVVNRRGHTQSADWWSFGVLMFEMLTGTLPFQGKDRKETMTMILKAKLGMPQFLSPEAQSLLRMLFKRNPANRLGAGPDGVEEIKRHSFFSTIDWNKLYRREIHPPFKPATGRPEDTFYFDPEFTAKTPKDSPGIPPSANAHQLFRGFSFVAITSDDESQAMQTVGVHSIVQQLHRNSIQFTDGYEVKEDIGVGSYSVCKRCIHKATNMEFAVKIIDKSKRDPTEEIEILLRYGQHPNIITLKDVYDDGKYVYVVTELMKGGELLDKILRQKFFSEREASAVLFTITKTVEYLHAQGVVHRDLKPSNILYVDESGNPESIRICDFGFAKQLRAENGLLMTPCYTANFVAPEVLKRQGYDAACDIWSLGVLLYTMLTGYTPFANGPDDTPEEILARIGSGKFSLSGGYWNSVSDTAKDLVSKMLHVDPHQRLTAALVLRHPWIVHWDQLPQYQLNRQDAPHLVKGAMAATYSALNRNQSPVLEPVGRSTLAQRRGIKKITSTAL

Work on `CN1CC(F)(F)CCN(C)[C@H]2CC[C@@H](C2)Nc2ncc(C(F)(F)F)c(n2)-c2c[nH]c3c(P(C)(C)=O)c(ccc23)C1=O` yielded a CLint scaled [1] of 84.3 mL/min/kg, a half-life [2] of 1.2 h and a half-life [3] of 1.4 h. It also gave a Vd [4] of 2.6 L/kg, a Vd [5] of 0.24 L/kg and an AUC(0-t) [6] of 415 ng·h/mL. The Cmax [7] was 355 ng/mL, the bioavailability [8] was 78.7% and the half-life [9] was 7.8 h. It also gave a half-life [10] of 5.5 h, a Cmax [11] of 3830 ng/mL and a Cmax [12] of 3310 ng/mL. For the same molecule, the AUC(0-t) [13] was 3960 ng·h/mL, the AUC(0-t) [14] was 14200 ng·h/mL and the IC50 [15] was 2.8 nM. It also gave an IC50 [16] of 7.9 nM, an IC50 [17] of 16.1 nM and an IC50 [18] of 146 nM. It also gave an IC50 (CDK18/Cyclin Y) of 4.2 nM, an IC50 [19] of 55 nM and an IC50 [20] of 23.7 nM. The IC50 [21] was 45.2 nM, the IC50 [22] was 291 nM and the fraction unbound [23] was 0.043. The fraction unbound [24] was 0.036, the half-life [25] was over 4.82 h and the IC50 (Cytochrome P450 2D6) was 7000 nM. It also gave an IC50 (Cytochrome P450 3A4) of 5200 nM, an inhibition in vivo at 2 mg/kg (OVCAR-3 [26]) of 110% and an inhibition in vivo at 5 mg/kg (OVCAR-3 [27]) of 111%. It also gave a half-life [28] of 2 h, a Cmax [29] of 214 ng/mL and a Cmax [30] of 1690 ng/mL. The AUC(0-t) [31] was 329 ng·h/mL, the AUC(0-t) [32] was 694 ng·h/mL and the AUC(0-t) [33] was 1720 ng·h/mL. It also gave an AUC(0-t) [34] of 3940 ng·h/mL, a half-life [35] of 1.6 h and a half-life [36] of 1.7 h. For the same molecule, the Cmax [37] was 75 ng/mL, the Cmax [38] was 130 ng/mL and the AUC(0-t) [39] was 84 ng·h/mL. The AUC(0-t) [40] was 812 ng·h/mL, the residual activity [41] was 0.85% and the residual activity [42] was 0.35%. It also gave a residual activity [43] of 24%, a residual activity [44] of 2.7% and a residual activity [45] of 17%.
